# Legend:
# barnyardgrass [1] = assay: Test D flooded paddy test; format: in vivo, Echinochloa crus-galli; conditions: 250 g ai/ha, applied to paddy water, visual rating after 13 to 14 days, scale 0 to 100 (0 no effect, 100 complete control)
# How it was run: (§1)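 Visual ratings from 0, meaning no effect, to 100, meaning complete control, were assigned against untreated controls 13 to 14 days after compounds were added to the floodwater of pots kept 3 cm deep, with plants at the 2-leaf stage.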
# wheat [2] = assay: Test C preemergence; format: in vivo, Triticum aestivum; conditions: 0 to 100 scale (0 no effect, 100 complete control); for Wheat plant response rating: preemergence
# How it was run: (§2)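 Seeds sown in loam soil–sand blend received a directed preemergence soil spray of test chemical in non-phytotoxic solvent with surfactant; postemergence plants (2–10 cm, one- to two-leaf stage) were sprayed with the same formulation. Greenhouse-held 10 days, then visually rated for injury versus untreated controls, 0 (no effect) to 100 (complete control).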
# galium = assay: Test C postemergence; format: in vivo, Galium aparine; conditions: 10 days
# How it was run: as §2
# oat, wild [3] = assay: Test C postemergence; format: in vivo, Avena fatua; conditions: 10 days
# How it was run: as §2
# pigweed, palmer [4] = assay: Test C postemergence; format: in vivo, Amaranthus palmeri; conditions: 10 days
# How it was run: as §2
# kochia [5] = assay: Test C postemergence; format: in vivo, Bassia scoparia; conditions: 10 days
# How it was run: as §2
# green foxtail [6] = assay: Test C postemergence; format: in vivo, Setaria viridis; conditions: 10 days
# How it was run: as §2
# soybean [7] = assay: Test C postemergence; format: in vivo, Glycine max; conditions: 10 days
# How it was run: as §2
# ragweed [8] = assay: Test C postemergence; format: in vivo, Ambrosia artemisiifolia; conditions: 10 days
# How it was run: as §2
# ryegrass, Italian [9] = assay: Test C preemergence; format: in vivo, Lolium multiflorum; conditions: 0 to 100 scale (0 no effect, 100 complete control); for Ryegrass, Italian plant response rating: preemergence
# How it was run: as §2
# soybean [10] = assay: Test C preemergence; format: in vivo, Glycine max; conditions: 0 to 100 scale (0 no effect, 100 complete control); for Soybean plant response rating: preemergence
# How it was run: as §2
# green foxtail [11] = assay: Test C preemergence; format: in vivo, Setaria viridis; conditions: 0 to 100 scale (0 no effect, 100 complete control); for Foxtail, Green plant response rating: preemergence
# How it was run: as §2
# pigweed, palmer [12] = assay: Test C preemergence; format: in vivo, Amaranthus palmeri; conditions: 0 to 100 scale (0 no effect, 100 complete control); for Pigweed, Palmer plant response rating: preemergence
# How it was run: as §2
# ragweed [13] = assay: Test C preemergence; format: in vivo, Ambrosia artemisiifolia; conditions: 0 to 100 scale (0 no effect, 100 complete control); for Ragweed plant response rating: preemergence
# How it was run: as §2
# rice = assay: Test D flooded paddy test; format: in vivo, Oryza sativa; conditions: 250 g ai/ha, applied to paddy water, visual rating after 13 to 14 days, scale 0 to 100 (0 no effect, 100 complete control)
# How it was run: as §1
# ducksalad = assay: Test D flooded paddy test; format: in vivo, Heteranthera limosa; conditions: 250 g ai/ha, applied to paddy water, visual rating after 13 to 14 days, scale 0 to 100 (0 no effect, 100 complete control)
# How it was run: as §1
# corn [14] = assay: Test C postemergence; format: in vivo, Zea mays; conditions: 10 days
# How it was run: as §2
# horseweed = assay: Test C postemergence; format: in vivo, Erigeron canadensis; conditions: 10 days
# How it was run: as §2
# kochia [15] = assay: Test C preemergence; format: in vivo, Bassia scoparia; conditions: 0 to 100 scale (0 no effect, 100 complete control); for Kochia plant response rating: preemergence
# How it was run: as §2
# wheat [16] = assay: Test C postemergence; format: in vivo, Triticum aestivum; conditions: 10 days
# How it was run: as §2
# sedge, umbrella = assay: Test D flooded paddy test; format: in vivo, Cyperus difformis; conditions: 250 g ai/ha, applied to paddy water, visual rating after 13 to 14 days, scale 0 to 100 (0 no effect, 100 complete control)
# How it was run: as §1
# corn [17] = assay: Test C preemergence; format: in vivo, Zea mays; conditions: 0 to 100 scale (0 no effect, 100 complete control); for Corn plant response rating: preemergence
# How it was run: as §2
# blackgrass [18] = assay: Test C preemergence; format: in vivo, Alopecurus myosuroides; conditions: 0 to 100 scale (0 no effect, 100 complete control); for Blackgrass plant response rating: preemergence
# How it was run: as §2
# barnyardgrass [19] = assay: Test C postemergence; format: in vivo, Echinochloa crusgalli; conditions: 10 days
# How it was run: as §2
# oat, wild [20] = assay: Test C preemergence; format: in vivo, Avena fatua; conditions: 0 to 100 scale (0 no effect, 100 complete control); for Oat, Wild plant response rating: preemergence
# How it was run: as §2
# ryegrass, Italian [21] = assay: Test C postemergence; format: in vivo, Lolium multiflorum; conditions: 10 days
# How it was run: as §2
# barnyardgrass [22] = assay: Test C preemergence; format: in vivo, Echinochloa crusgalli; conditions: 0 to 100 scale (0 no effect, 100 complete control); for Barnyardgrass plant response rating: preemergence
# How it was run: as §2
# blackgrass [23] = assay: Test C postemergence; format: in vivo, Alopecurus myosuroides; conditions: 10 days
# How it was run: as §2
# [24] = 500 g ai/ha, postemergence, 0 to 100 scale (0 no effect, 100 complete control)
# [25] = Postemergence, 125 g ai/ha, 0 to 100 scale (0 no effect, 100 complete control)
# [26] = Preemergence, 500 g ai/ha, visual rating after 10 days
# [27] = 125 g ai/ha, postemergence, 0 to 100 scale, 0 no effect, 100 complete control
# [28] = Postemergence, 500 g ai/ha, visual 0 to 100 scale (0 no effect, 100 complete control)
smiles,measurement,setting,value
Cc1cccc2c1OC(C(F)(F)F)CN2C(=O)c1cccc(-n2cnc(C(C)C)n2)c1 (racemic) [Compound 301],"Plant response rating, Barnyardgrass (Flood)",barnyardgrass [1],20
same,Wheat plant response rating,wheat [2]; 500 g ai/ha,90
same,Wheat plant response rating,"wheat [2]; Test C, 125 g ai/ha",40
same,"Plant response rating, Galium",galium; [24],100
same,"Plant response rating, Galium",galium; [25],100
same,"Plant response rating, Oat, Wild","oat, wild [3]; [24]",50
same,"Plant response rating, Oat, Wild","oat, wild [3]; [25]",20
same,"Plant response rating, Pigweed, Palmer","pigweed, palmer [4]; [24]",60
same,"Plant response rating, Pigweed, Palmer","pigweed, palmer [4]; [25]",10
same,"Plant response rating, Kochia",kochia [5]; [24],80
same,"Plant response rating, Kochia",kochia [5]; [25],50
same,"Plant response rating, Foxtail, Green",green foxtail [6]; [24],70
same,"Plant response rating, Foxtail, Green",green foxtail [6]; [25],10
same,"Plant response rating, Soybean",soybean [7]; [24],100
same,"Plant response rating, Soybean",soybean [7]; [25],100
same,"Plant response rating, Ragweed",ragweed [8]; [24],60
same,"Plant response rating, Ragweed",ragweed [8]; [25],30
same,"Ryegrass, Italian plant response rating","ryegrass, Italian [9]; 500 g ai/ha",100
same,"Ryegrass, Italian plant response rating","ryegrass, Italian [9]; Test C, 125 g ai/ha",100
same,Soybean plant response rating,soybean [10]; 500 g ai/ha,100
same,Soybean plant response rating,"soybean [10]; Test C, 125 g ai/ha",10
same,"Foxtail, Green plant response rating",green foxtail [11]; 500 g ai/ha,100
same,"Foxtail, Green plant response rating","green foxtail [11]; Test C, 125 g ai/ha",100
same,"Pigweed, Palmer plant response rating","pigweed, palmer [12]; 500 g ai/ha",100
same,"Pigweed, Palmer plant response rating","pigweed, palmer [12]; Test C, 125 g ai/ha",90
same,Ragweed plant response rating,ragweed [13]; 500 g ai/ha,50
same,Ragweed plant response rating,"ragweed [13]; Test C, 125 g ai/ha",0
same,"Plant response rating, Rice (Flood)",rice,15
same,"Plant response rating, Ducksalad (Flood)",ducksalad,55
same,"Plant response rating, Corn",corn [14]; [24],80
same,"Plant response rating, Corn",corn [14]; [25],10
same,"Plant response rating, Horseweed",horseweed; [24],0
same,"Plant response rating, Horseweed",horseweed; [25],20
same,Kochia plant response rating,kochia [15]; 500 g ai/ha,90
same,Kochia plant response rating,"kochia [15]; Test C, 125 g ai/ha",80
same,"Plant response rating, Wheat",wheat [16]; [24],50
same,"Plant response rating, Wheat",wheat [16]; [25],20
same,"Plant response rating, Sedge, Umbrella (Flood)","sedge, umbrella",85
same,Corn plant response rating,corn [17]; 500 g ai/ha,0
same,Corn plant response rating,"corn [17]; Test C, 125 g ai/ha",0
same,Blackgrass plant response rating,blackgrass [18]; 500 g ai/ha,100
same,Blackgrass plant response rating,"blackgrass [18]; Test C, 125 g ai/ha",90
same,"Plant response rating, Barnyardgrass",barnyardgrass [19]; [24],40
same,"Plant response rating, Barnyardgrass",barnyardgrass [19]; [25],10
same,"Oat, Wild plant response rating","oat, wild [20]; 500 g ai/ha",90
same,"Oat, Wild plant response rating","oat, wild [20]; Test C, 125 g ai/ha",70
same,"Plant response rating, Ryegrass, Italian","ryegrass, Italian [21]; [24]",80
same,"Plant response rating, Ryegrass, Italian","ryegrass, Italian [21]; [25]",70
same,Barnyardgrass plant response rating,barnyardgrass [22]; 500 g ai/ha,90
same,Barnyardgrass plant response rating,"barnyardgrass [22]; Test C, 125 g ai/ha",50
same,"Plant response rating, Blackgrass",blackgrass [23]; [24],100
same,"Plant response rating, Blackgrass",blackgrass [23]; [25],90
"Cc1ccc(-n2cnc(C(C)(C)C)n2)cc1C(=O)N1CC(C(F)(F)F)Oc2c(Cl)cccc21 (single isomer, unassigned) [Compound 192]","Plant response rating, Barnyardgrass (Flood)",barnyardgrass [1],0
same,"Plant response rating, Wheat",wheat [2]; [26],30
same,Wheat plant response rating,"wheat [2]; Test C, 125 g ai/ha",0
same,"Plant response rating, Galium",galium; [27],100
same,"Plant response rating, Galium",galium; [28],100
same,"Plant response rating, Oat, Wild","oat, wild [3]; [27]",20
same,"Plant response rating, Oat, Wild","oat, wild [3]; [28]",50
same,"Plant response rating, Pigweed, Palmer","pigweed, palmer [4]; [27]",90
same,"Plant response rating, Pigweed, Palmer","pigweed, palmer [4]; [28]",100
same,"Plant response rating, Kochia",kochia [5]; [27],80
same,"Plant response rating, Kochia",kochia [5]; [28],100
same,"Plant response rating, Foxtail, Green",green foxtail [6]; [27],10
same,"Plant response rating, Foxtail, Green",green foxtail [6]; [28],80
same,"Plant response rating, Soybean",soybean [7]; [27],100
same,"Plant response rating, Soybean",soybean [7]; [28],100
same,"Plant response rating, Ragweed",ragweed [8]; [27],90
same,"Plant response rating, Ragweed",ragweed [8]; [28],100
same,"Plant response rating, Ryegrass, Italian","ryegrass, Italian [9]; [26]",90
same,"Ryegrass, Italian plant response rating","ryegrass, Italian [9]; Test C, 125 g ai/ha",90
same,"Plant response rating, Soybean",soybean [10]; [26],90
same,Soybean plant response rating,"soybean [10]; Test C, 125 g ai/ha",30
same,"Plant response rating, Foxtail, Green",green foxtail [11]; [26],100
same,"Foxtail, Green plant response rating","green foxtail [11]; Test C, 125 g ai/ha",100
same,"Plant response rating, Pigweed, Palmer","pigweed, palmer [12]; [26]",100
same,"Pigweed, Palmer plant response rating","pigweed, palmer [12]; Test C, 125 g ai/ha",90
same,"Plant response rating, Ragweed",ragweed [13]; [26],80
same,Ragweed plant response rating,"ragweed [13]; Test C, 125 g ai/ha",10
same,"Plant response rating, Rice (Flood)",rice,0
same,"Plant response rating, Ducksalad (Flood)",ducksalad,0
same,"Plant response rating, Corn",corn [14]; [27],10
same,"Plant response rating, Corn",corn [14]; [28],20
same,"Plant response rating, Horseweed",horseweed; [27],0
same,"Plant response rating, Horseweed",horseweed; [28],30
same,"Plant response rating, Kochia",kochia [15]; [26],100
same,Kochia plant response rating,"kochia [15]; Test C, 125 g ai/ha",60
same,"Plant response rating, Wheat",wheat [16]; [27],20
same,"Plant response rating, Wheat",wheat [16]; [28],20
same,"Plant response rating, Sedge, Umbrella (Flood)","sedge, umbrella",0
same,"Plant response rating, Corn",corn [17]; [26],20
same,Corn plant response rating,"corn [17]; Test C, 125 g ai/ha",20
same,"Plant response rating, Blackgrass",blackgrass [18]; [26],80
same,Blackgrass plant response rating,"blackgrass [18]; Test C, 125 g ai/ha",70
same,"Plant response rating, Barnyardgrass",barnyardgrass [19]; [27],20
same,"Plant response rating, Barnyardgrass",barnyardgrass [19]; [28],50
same,"Plant response rating, Oat, Wild","oat, wild [20]; [26]",90
same,"Oat, Wild plant response rating","oat, wild [20]; Test C, 125 g ai/ha",40
same,"Plant response rating, Ryegrass, Italian","ryegrass, Italian [21]; [27]",40
same,"Plant response rating, Ryegrass, Italian","ryegrass, Italian [21]; [28]",50
same,"Plant response rating, Barnyardgrass",barnyardgrass [22]; [26],90
same,Barnyardgrass plant response rating,"barnyardgrass [22]; Test C, 125 g ai/ha",60
same,"Plant response rating, Blackgrass",blackgrass [23]; [27],30
same,"Plant response rating, Blackgrass",blackgrass [23]; [28],30

# — patent US20260262643A1, “HERBICIDAL BENZOXAZINES” (FMC CORPORATION, priority 2022, published 2026)
